Measured values: patent publication US8722070B2, “Active compound combinations having insecticidal and acaricidal properties” (Bayer CropScience AG, priority 2000, dated 2014)

How the values were obtained:
[1] = tested on: cotton aphid (Aphis gossypii); experiment: Aphis gossypii test (cotton leaves dipped into the preparation of active compound); type: in vivo; conditions: individual active compound, 1.6 ppm, cotton leaves (Gossypium hirsutum)
Description: (§1) The expected action for a given combination of two active compounds can be calculated as follows, using the formula of S. R. Colby, Weeds 15 (1967), 20-22):
(§2) • X is the kill rate, expressed as a percentage of the untreated control, when employing active compound A at an application rate of m g/ha or in a concentration of m ppm, • Y is the kilt rate, expressed as a percentage of the untreated control, when employing active compound B at an application rate of n g/ha or in a concentration of n ppm and • E is the kill rate, expressed as a percentage of the untreated control, when employing active compounds A and B at application rates of m and n g/ha or in a concentration of m and n ppm, then
(§3) If the actual insecticidal kill rate exceeds the calculated value, the action of the combination is superadditive, i.e. a synergistic effect is present. In this case, the actually observed kill rate must exceed the value calculated using the above formula for the expected kill rate (E).
(§4) After the desired period of time, the kill rate in % is determined. 100% means that all the animals have been killed; 0% means that none of the animals has been killed.
(§5) Solvent: 3 parts by weight of dimethylformamide
(§6) Emulsifier: 1 part by weight of alkylaryl polyglycol ether […]
After the desired period of time, the kill in % is determined. […] The kill rates that are determined are calculated using Colby formula.

[2] = tested on: peach aphid (Myzus persicae); experiment: Myzus test (cabbage leaves dipped into the preparation of active compound); type: in vivo; conditions: individual active compound, 1.6 ppm, cabbage leaves (Brassica oleracea)
Description: as §1, §2, §3, §4, §5, §6
After the desired period of time, the kill in % is determined. […] The kill rates determined are calculated using Colby's formula.

## CC1(C)C(C=C(Cl)Cl)C1C(=O)OC(C#N)c1ccc(F)c(Oc2ccccc2)c1 (centres unmarked) [cyfluthrin, Cyfluthrin]
[1]
  Kill rates in % after 6d: 75%
[2]
  Kill rates in % after 1d: 25%
